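Growth conditions: 96-well plates. Treatment: test compound, 48 hours, 5 concentrations. Analysis: linear interpolation between bracketing concentrations; unreached endpoints set to highest concentration. TGI denotes the concentration required for complete inhibition of growth.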
How the values were obtained:
Test in all cases: NCI-60 cell line screen, 48 h
786-0 renal = system: 786-0 renal
A498 renal = system: A498 renal
A549 NSCLC = system: A549 NSCLC
CAKI-1 renal = system: CAKI-1 renal
CCRF-CEM leukemia = system: CCRF-CEM leukemia
COLO 205 colon = system: COLO 205 colon
DLD-1 colon = system: DLD-1 colon
DMS 114 small cell lung = system: DMS 114 small cell lung
EKVX NSCLC = system: EKVX NSCLC
HCC-2998 colon = system: HCC-2998 colon
HCT-116 colon = system: HCT-116 colon
HCT-15 colon = system: HCT-15 colon
HL-60(TB) leukemia = system: HL-60(TB) leukemia
HOP-62 NSCLC = system: HOP-62 NSCLC
HOP-92 NSCLC = system: HOP-92 NSCLC
HT29 colon = system: HT29 colon
IGROV1 ovarian = system: IGROV1 ovarian
KM12 colon = system: KM12 colon
KM20L2 colon = system: KM20L2 colon
M14 melanoma = system: M14 melanoma
M19-MEL melanoma = system: M19-MEL melanoma
MALME-3M melanoma = system: MALME-3M melanoma
MOLT-4 leukemia = system: MOLT-4 leukemia
NCI-H23 lung = system: NCI-H23 lung
NCI-H522 lung = system: NCI-H522 lung
OVCAR-3 ovarian = system: OVCAR-3 ovarian
OVCAR-4 ovarian = system: OVCAR-4 ovarian
OVCAR-5 ovarian = system: OVCAR-5 ovarian
OVCAR-8 ovarian = system: OVCAR-8 ovarian
RPMI-8226 leukemia = system: RPMI-8226 leukemia
RXF 393 renal = system: RXF 393 renal
SF-268 CNS = system: SF-268 CNS
SF-295 CNS = system: SF-295 CNS
SF-539 CNS = system: SF-539 CNS
SK-MEL-2 melanoma = system: SK-MEL-2 melanoma
SK-MEL-28 melanoma = system: SK-MEL-28 melanoma
SK-MEL-5 melanoma = system: SK-MEL-5 melanoma
SK-OV-3 ovarian = system: SK-OV-3 ovarian
SN12C renal = system: SN12C renal
SNB-19 CNS = system: SNB-19 CNS
SNB-75 CNS = system: SNB-75 CNS
SR leukemia = system: SR leukemia
SW-620 colon = system: SW-620 colon
TK-10 renal = system: TK-10 renal
U251 CNS = system: U251 CNS
UACC-62 melanoma = system: UACC-62 melanoma
UO-31 renal = system: UO-31 renal
ACHN renal = system: ACHN renal
DMS 273 small cell lung = system: DMS 273 small cell lung
HOP-18 NSCLC = system: HOP-18 NSCLC
K-562 leukemia = system: K-562 leukemia
LOX IMVI melanoma = system: LOX IMVI melanoma
LXFL 529 NSCLC = system: LXFL 529 NSCLC
NCI-H226 lung = system: NCI-H226 lung
NCI-H460 lung = system: NCI-H460 lung

Measured: TGI

C=CCC(C(=O)OC)C1(C(=O)OC)c2[nH]c3ccccc3c2CCN1Cc1ccccc1 (configuration not stated)
74.6 µM: HOP-92 NSCLC
not listed: ACHN renal | DMS 273 small cell lung | HOP-18 NSCLC | K-562 leukemia | LOX IMVI melanoma | LXFL 529 NSCLC | NCI-H226 lung | NCI-H460 lung
> 100 µM: all other assays above

COc1ccc(/C=C2\N=C(c3ccccc3)OC2=O)c(OCc2ccccc2)c1
46.6 µM: SF-539 CNS
34.8 µM: 786-0 renal
38.6 µM: SF-295 CNS
67.2 µM: NCI-H522 lung
77.2 µM: DLD-1 colon
68.5 µM: A498 renal
80.6 µM: MOLT-4 leukemia
47.7 µM: OVCAR-4 ovarian
64.4 µM: IGROV1 ovarian
50 µM: UACC-62 melanoma
45.2 µM: HOP-62 NSCLC
48.4 µM: OVCAR-3 ovarian
50.2 µM: CCRF-CEM leukemia
52.2 µM: SK-MEL-5 melanoma
94.3 µM: SNB-19 CNS
92.3 µM: DMS 114 small cell lung
72 µM: OVCAR-8 ovarian
not listed: HCT-15 colon | HOP-92 NSCLC | HT29 colon | NCI-H23 lung | RXF 393 renal | SK-MEL-2 melanoma | SK-OV-3 ovarian | SNB-75 CNS | TK-10 renal | U251 CNS
> 100 µM: all other assays above

— PubChem BioAssay (NCI)
